Measurements from PubChem BioAssay (NCI).
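Protocol summary: plate cells (96-well), add compound at 5 concentrations, incubate 48 h, interpolate endpoints linearly. At the TGI there is no net growth.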

Legend:
Test in all cases: NCI tumour cell line growth inhibition, 48 h
RPMI-8226 leukemia = system: RPMI-8226 leukemia
UACC-257 melanoma = system: UACC-257 melanoma
HT29 colon = system: HT29 colon
LOX IMVI melanoma = system: LOX IMVI melanoma
HS 578T breast = system: HS 578T breast
HOP-62 NSCLC = system: HOP-62 NSCLC
SW-620 colon = system: SW-620 colon
SK-MEL-5 melanoma = system: SK-MEL-5 melanoma
NCI-H226 lung = system: NCI-H226 lung
SF-268 CNS = system: SF-268 CNS
OVCAR-4 ovarian = system: OVCAR-4 ovarian
T-47D breast = system: T-47D breast
NCI-H23 lung = system: NCI-H23 lung
MALME-3M melanoma = system: MALME-3M melanoma
SK-OV-3 ovarian = system: SK-OV-3 ovarian
DU-145 prostate = system: DU-145 prostate
RXF 393 renal = system: RXF 393 renal
U251 CNS = system: U251 CNS
NCI/ADR-RES ovarian = system: NCI/ADR-RES ovarian
ACHN renal = system: ACHN renal
SF-295 CNS = system: SF-295 CNS
OVCAR-5 ovarian = system: OVCAR-5 ovarian
MDA-N = system: MDA-N
SK-MEL-2 melanoma = system: SK-MEL-2 melanoma
IGROV1 ovarian = system: IGROV1 ovarian
OVCAR-3 ovarian = system: OVCAR-3 ovarian
786-0 renal = system: 786-0 renal
SR leukemia = system: SR leukemia
SNB-19 CNS = system: SNB-19 CNS
UO-31 renal = system: UO-31 renal
SF-539 CNS = system: SF-539 CNS
SN12C renal = system: SN12C renal
M14 melanoma = system: M14 melanoma
KM12 colon = system: KM12 colon
TK-10 renal = system: TK-10 renal
A498 renal = system: A498 renal
NCI-H460 lung = system: NCI-H460 lung
MCF7 breast = system: MCF7 breast
SK-MEL-28 melanoma = system: SK-MEL-28 melanoma
OVCAR-8 ovarian = system: OVCAR-8 ovarian
COLO 205 colon = system: COLO 205 colon
NCI-H522 lung = system: NCI-H522 lung
MDA-MB-231 breast = system: MDA-MB-231 breast
EKVX NSCLC = system: EKVX NSCLC
HOP-92 NSCLC = system: HOP-92 NSCLC
HCT-15 colon = system: HCT-15 colon
CAKI-1 renal = system: CAKI-1 renal
PC-3 prostate = system: PC-3 prostate
MDA-MB-435 = system: MDA-MB-435
MOLT-4 leukemia = system: MOLT-4 leukemia
HCC-2998 colon = system: HCC-2998 colon
UACC-62 melanoma = system: UACC-62 melanoma
A549 NSCLC = system: A549 NSCLC
SNB-75 CNS = system: SNB-75 CNS
HCT-116 colon = system: HCT-116 colon
K-562 leukemia = system: K-562 leukemia
HL-60(TB) leukemia = system: HL-60(TB) leukemia
CCRF-CEM leukemia = system: CCRF-CEM leukemia

Measured: TGI

O=C(NC/C(Cl)=C/Cl)Nc1cccc2c1CCCC2
not listed: K-562 leukemia | HL-60(TB) leukemia | CCRF-CEM leukemia
> 100 µM: all other assays above

ClCC1(CCl)COC1
not listed: RPMI-8226 leukemia | HOP-62 NSCLC | MALME-3M melanoma | OVCAR-5 ovarian | SK-MEL-2 melanoma | IGROV1 ovarian | 786-0 renal | SF-539 CNS | EKVX NSCLC | CAKI-1 renal | UACC-62 melanoma
> 100 µM: all other assays above
